Blank lines part the entries; values can stand above or below the molecule they belong to.
How the values were obtained:
[1] = tested on: examined cancer cell lines; assay: MTT cell viability assay, cell line not given (panel); assay type: cell-based; settings: Homo sapiens; cell line not specified
Protocol: (§1) Human cancer cell lines were purchased from Hyclone Laboratories, Utah, USA. Pancreatic cancer cells (L3.6pl and MiaPaCa-2) and breast cancer cells (MCF-7) were maintained in DMEM while lung cancer cells (H1299) and prostate cancer cells (C42B) were maintained in RPMI 1640 media. All media were supplemented with antibiotics (penicillin 50 U/ml; streptomycin 50 μg/ml) and 10% fetal bovine serum (FBS, Biowest, Nouaille, France).
(§2) BQs were tested for their antiprolifrative activity in vitro using MTT assay on human pancreatic cancer cells (L3.6pl and MiaPaCa-2), human lung cancer cells (H1299), human breast cancer cells (MCF-7) and human prostate cancer cells (C42B).
(§3) The cell viability test was conducted by seeding pancreatic (L3.6pl and MiaPaCa-2), lung (H1299), breast (MCF-7) and prostate (C42B) cancer cells into 96-well culture plates at a density of 3×10^3 cells per well. Cells were then exposed to increasing doses (0-25 μM) of BQs for 72 hrs and MTT assay was performed using thymoquinone as a positive control in all experiments. The results were plotted as means±SD of at least three separate experiments using six determinations per experiment. Data were presented as proportional viability (%) by comparing the treated group with the untreated cells whose viability is assumed to be 100%. IC50s of the BQs were estimated from the linear plots of concentrations versus cell viabilities.

[2] = tested on: breast cancer cells (MCF-7); assay: MTT cell viability assay, MCF-7; assay type: cell-based, human; settings: for loss of cell viability: MCF-7, 72 hours, BQs 1.0-25.0 μM, relative to control (DMSO)
Protocol: as §1, §2, §3

[3] = tested on: telomeric G-quadruplex DNA; assay: Melting temperature curves by CD, G-quadruplex-BQs complexes; assay type: binding, human; settings: for selectivity towards G-quadruplex over ct-DNA: from differences between ΔTm (G-quadruplex) and ΔTm (ct-DNA); for Tm of G-quadruplex-BQ complex / ΔTm of G-quadruplex-BQ complex: CD, equimolar BQ, Tris-KCl buffer pH 7.4
Protocol: (§4) Melting temperature curves for telomere G-quadruplex, ct-DNA and their BQs' adducts were constructed using CD spectral measurements. A 1.0 ml telomeric G-quadruplex (3.93×10^−6 M) or ct-DNA (100.00 ppm) in Tris-KCl-buffer, pH 7.4 was heated in the range 25-95° C. applying 2.0-5.0° C. increments and using 5 min incubation time intervals. The CD spectra in the range 200-400 nm were recorded at each temperature using the scan parameters described in previous section. BQs complexes with G-quadruplex or ct-DNA were prepared by mixing equimolar amounts of G-quadruplex (1.44×10^−4 M) with BQs (1×10^−4 M) or ct-DNA (1000 ppm) with BQs (1×10^−4 M) solution in 1.0 ml KCl-buffer pH 7.4. Solutions were incubated for 30 min before scan. Collected CD spectra were smoothed and baseline corrected against blank solution. Intensities of CD peaks for G-quadruplex, ct-DNA and their BQs' complexes at 293 and 282 nm were recorded. Plots of CD intensities versus temperature were constructed.

[4] = tested on: prostate cancer cells (C42B); assay: MTT cell viability assay, C42B; assay type: cell-based, human; settings: for loss of cell viability: 72 hours, BQs 1.0-25.0 μM, relative to control (DMSO); for IC50: Homo sapiens, 72 hrs
Protocol: as §1, §2, §3

[5] = tested on: pancreatic cancer cells (L3.6pl); assay: MTT cell viability assay, L3.6pl; assay type: cell-based, human
Protocol: as §1, §2, §3

[6] = tested on: lung cancer cells (H1299); assay: MTT cell viability assay, H1299; assay type: cell-based, human; settings: for inhibition in cell viability: H1299, 72 hours, BQs 1.0-25.0 μM, relative to control (DMSO)
Protocol: as §1, §2, §3

ct-DNA (calf thymus DNA) = assay: Melting temperature curves by CD, ct-DNA-BQs complexes; assay type: binding; settings: Tris-KCl buffer pH 7.4
Protocol: Calf thymus ds-DNA (1000 μg/ml; 8×10^−8 M) was prepared by dissolving 10.0 mg of DNA into 10.0 ml Tris-KCl buffer, pH 7.4, without sonication or stirring. To prevent shearing of the large genomic DNA, the solution was gently inverted overnight at 4.0° C. to completely solubilize the DNA. Solutions of DNA are stable for several months at 4.0° C. in Tris-KCl buffer pH 7-8.
as §4, with “scan.” for “scan. Collected CD spectra were smoothed and baseline corrected against blank solution. Intensities of CD peaks for G-quadruplex, ct-DNA and their BQs' complexes at 293 and 282 nm were recorded. Plots of CD intensities versus temperature were constructed.”
Collected CD spectra were smoothed and baseline corrected against blank solution. Intensities of CD peaks for G-quadruplex, ct-DNA and their BQs' complexes at 293 and 282 nm were recorded. Plots of CD intensities versus temperature were constructed.

[7] = tested on: pancreatic cancer cells (MiaPaCa-2); assay: MTT cell viability assay, MiaPaCa-2; assay type: cell-based, human; settings: for IC50: Homo sapiens, MIA PaCa-2, MiaPaCa-2, 72 hrs
Protocol: as §1, §2, §3

[8] = tested on: telomeric G-quadruplex DNA AGGG(TTAGGG)3; assay: UV-Vis absorption titration, Scatchard plot and molar ratio method; assay type: binding, human; settings: Scatchard plot of UV-Vis titration, Tris-KCl buffer pH 7.4
Protocol: Telomeric G-quadruplex DNA was prepared by heating gently 2.0 ml of stock single stranded 5′-[…]-3′ DNA (SEQ ID NO: 1) up to 95.0° C. Resultant solution was incubated at 95.0° C. for 10 min. The solution was left to cool gently down to room temperature, then kept in fridge at 4.0° C. overnight before use. A 10^−5 M fluorescein labeled G-quadruplex DNA was prepared similarly using 5′-Flu-telomeric DNA.
Successive amounts of G-quadruplex DNA (AGGG(TTAGGG)3, 1.44×10^−4 M) were added to 1.00 ml of each BQ (5×10^−6 M) in Tris-KCl buffer, pH 7.4. Solution was shacked well after each addition, incubated for 3 min at room temperature and its absorbance was scanned in the range 200-600 nm. Titration was stopped when no change in absorbance was observed. The experiment was reversed by adding successive amounts of the each BQ (1×10^−3 M) to 1.0 ml of 4×10^−6 M G-quadruplex DNA.
The molar ratio method based on measuring UV-Vis absorption was used for determining stoichiometry of G-quadruplex DNA interactions with BQs. A 1.00 ml BQs (5×10^−6 M) was titrated with telomere G-quadruplex (1.44×10^−4 M) in Tris-KCl buffer, pH 7.4. […] A plot of absorbance versus molar ratio [BQs]/[DNA] was constructed. […]
where Af, A and Ab are the absorbance at zero addition, after each addition and at saturation, respectively. […]

Structure (SMILES): O=C1C=C(Nc2ccccc2)C(=O)C=C1Nc1ccccc1 [BQ5, 2,5-bis-anilino-1,4-benzoquinone]
melting point: 342 to 345 °C
selectivity towards G-quadruplex over ct-DNA ([3]; listed as BQS): 3.5 folds
loss of cell viability [4]: 27.25%
IC50 [4]: 42.1 µM

Structure (SMILES): O=C1C=C(Nc2cc(F)c(F)c(F)c2)C(=O)C=C1Nc1cc(F)c(F)c(F)c1 [BQ2, 2,5-bis-(3,4,5-trifluoroanilino)-1,4-benzoquinone]
melting point: > 350 °C

Structure (SMILES): COc1ccc(NC2=CC(=O)C(Nc3ccc(OC)cc3)=CC2=O)cc1 [BQ3, 2,5-bis-(4-methoxylanilino)-1,4-benzoquinone]
melting point: 323 to 325 °C
Melting temperature shift (ΔTm) of ct-DNA on BQ binding (ct-DNA (calf thymus DNA)): 3.8 °C
selectivity towards G-quadruplex over ct-DNA [3]: low selectivity
ΔTm, G-quadruplex versus ct-DNA ([3]; stabilized both G-quadruplex and ct-DNA): ~0.2 °C
IC50 [7]: 7.68 µM

Structure (SMILES): O=C1C=C(NCCN2CCOCC2)C(=O)C=C1NCCN1CCOCC1 [BQ7, 2,5-bis((2-morpholinoethyl)amino)-1,4-benzoquinone]
melting point: 184 to 188 °C
loss of cell viability [4]: 1.29%
inhibition in cell viability [6]: 20.81%
loss in cell viability ([7]; MiaPaCa-2, 72 hours, BQs 1.0-25.0 μM, relative to control (DMSO)): 7.53%

Structure (SMILES): O=C1C=C(Nc2cccc(C(F)(F)F)c2)C(=O)C=C1Nc1cccc(C(F)(F)F)c1 [BQ1, 2,5-bis-(3-trifluoromethylanilino)-1,4-benzoquinone]
binding constant (K) towards G-quadruplex DNA [8]: 728000 M⁻¹
melting point: 280 to 282.5 °C
Melting temperature shift (ΔTm) of ct-DNA on BQ binding (ct-DNA (calf thymus DNA)): 5.8 °C
Tm of G-quadruplex-BQ complex [3]: 75.5 °C
ΔTm of G-quadruplex-BQ complex [3]: 7.5 °C
IC50 [4]: 43.2 µM

Structure (SMILES): O=C1C=C(Nc2ccc(F)cc2)C(=O)C=C1Nc1ccc(F)cc1 [BQ4, 2,5-bis-(4-fluoroanilino)-1,4-benzoquinone]
melting point: > 350 °C
Tm of G-quadruplex-BQ complex [3]: 68.1 °C
ΔTm of G-quadruplex-BQ complex [3]: 0.1 °C
IC50 ([6]; Homo sapiens, NCI-H1299, H1299, 72 hrs): 7.48 µM

Second part, led by results:

melting point: 271 to 274 °C
IC50 [1]: < 10 µM
IC50 ([2]; Homo sapiens, MCF7, MCF-7, 72 hrs): 8.04 µM
Structure (SMILES): O=C1C=C(NCc2ccc(C(F)(F)F)cc2)C(=O)C=C1NCc1ccc(C(F)(F)F)cc1 [BQ10, 2,5-bis-(4-trifluoromethylbenzylamino)-1,4-benzoquinone]

melting point: 237 to 239 °C
Structure (SMILES): O=C1C=C(NCc2cc(C(F)(F)F)cc(C(F)(F)F)c2)C(=O)C=C1NCc1cc(C(F)(F)F)cc(C(F)(F)F)c1 [BQ14, 2,5-bis-(3,5-ditrifluoromethylbenzylamino)-1,4-benzoquinone]

melting point: 289 to 291 °C
Structure (SMILES): O=C1C=C(NC2CCCC2)C(=O)C=C1NC1CCCC1 [BQ8, 2,5-bis-(cyclopentylamino)-1,4-benzoquinone]
inhibition in cell viability ([5]; 72 hours, BQs 1.0-25.0 μM, relative to control (DMSO)): 26.97%

melting point: 159 to 162 °C
IC50 [1]: < 10 µM
Structure (SMILES): O=C1C=C(NCCN2CCCC2)C(=O)C=C1NCCN1CCCC1 [BQ9, 2,5-bis((2-(pyrrolidin-1-yl)ethyl)amino)-1,4-benzoquinone]
inhibition in cell viability [6]: 84.40%
loss of cell viability [2]: 92.50%

melting point: 248 to 250 °C
IC50 ([5]; Homo sapiens, 72 hrs): 9.67 µM
IC50 [1]: < 10 µM
IC50 [7]: 6.18 µM
Structure (SMILES): O=C1C=C(NCc2ccc(F)cc2)C(=O)C=C1NCc1ccc(F)cc1 [BQ11, 2,5-bis-(4-fluorobenzylamino)-1,4-benzoquinone]
Tm of G-quadruplex-BQ complex [3]: lowest

melting point: 254.5 to 256 °C
Structure (SMILES): O=C1C=C(NCc2ccccc2)C(=O)C=C1NCc1ccccc1 [BQ13, 2,5-bis-(benzylamino)-1,4-benzoquinone]

melting point: 256.5 to 258.5 °C
Structure (SMILES): COc1ccc(CNC2=CC(=O)C(NCc3ccc(OC)c(OC)c3)=CC2=O)cc1OC [BQ12, 2,5-bis-(3,4-dimethoxybenzylamino)-1,4-benzoquinone]
loss of cell viability [2]: 24.16%

Source: US20200010413A1, “Benzoquinone derivatives for treatment of cancer and methods of making the benzoquinone derivatives” (United Arab Emirates University, priority 2016, published 2020)
